For one compound, solubility results are on record in PubChem BioAssay AID504738 (National Center for Advancing Translational Sciences (NCATS), 2011).

This data set deals with kinetic aqueous solubility, PBS pH 7.4, LC-UV/MS. The experiment in a line: Inhibitors of Bloom's syndrome helicase: Aqueous Profiling Assay. From the text:
Survival of cells and the faithful propagation of the genome depend on elaborate mechanisms of detecting and repairing DNA damage. Treatment of advanced cancer relies on radiation therapy or chemotherapy, which kill cancer cells by causing extensive DNA damage. It is often found, that cancer cells develop resistance to therapy through enhanced activity of DNA repair functions; this has led to an increased interest in developing drugs that interfere with DNA repair, which could sensitize cancer cells to conventional therapy. Bloom syndrome helicase (BLM), is important in resolving abnormal DNA structures formed during replication or homologous recombination. Shutting down the expression of BLM leads to chromosomal instability and higher radiation sensitivity in cultured cells. This bioassay provides profiling data on aqueous kinetic solubility (PBS @ pH 7.4) of one of the lead compounds developed in the APE1 inhibitors project. NIH Chemical Genomics Center [NCGC] NIH Molecular Libraries Probe Production Centers Network [MLPCN] MLSCN Grant: MH087284 PI Name: Dr. Opher Gileadi, Structural Genomics Consortium, University of Oxford, UK
1. 8ul of reference and test compound stock solution were added to 392ul 100mM phosphate buffer (pH 7.4) 2. Sample tubes were shaken for 1 hr (1000 rpm) at room temperature 3. […] Concentration of the supernatant was determined by LC-UV or LC-MS/MS

By solubility is commonly meant how much of the substance goes into solution per volume. Turning to `O=C(Nc1ccc(F)c(C(F)(F)F)c1)Nc1nnc(-c2ccncc2)s1`, the solubility is 2 µM.
